Common to all, as to type: in vivo, human
Series [1] relates to adult RA patients. As to the kind of experiment: 9-month open follow-up on Prednisone delayed-release: duration of morning stiffness. The following applies: prednisone = all subjects. The source says: Although efficacy was not the main objective of this open follow-up study, the order of reporting was kept the same as in the previous study report on the double-blind phase. […] Mean Daily Duration of Morning Stiffness
The mean daily duration of morning stiffness at start of the double-blind period (Visit 2), at start of the open follow-up period (Visit 5) and at end of study (Visit 8) as well as the relative changes are presented in Table 10 and FIG. 2 for the study population.
Taking advantage of the higher number of available data, the interpretation of the results was carried out for the total numbers.

In the next series the test system is CRP. The series is described as follows: 9-month open follow-up: CRP. As to conditions: after 12 weeks double-blind, by group; prednisone = Total. The text has this:
The median values of the inflammatory signs CRP and IL-6 during the open follow-up period (Visit 5 to Visit 8) and the respective absolute changes are presented in Table 12 and FIG. 3.

Series [2] concerns adult RA patients. As to the kind of experiment: Phase III study, double-blind phase: adverse events.
Setting [3] is: after 12 weeks double-blind, by group.
[4] abbreviates: subjects of open follow-up, by double-blind group.
Where [5] appears, read: 12-week double-blind phase, prednisone = Total.

The values that follow come from patent US9504699B2, “Delayed-release glucocorticoid treatment of rheumatoid disease” (Horizon Pharma AG, priority 2006, dated 2016).

For `C[C@]12C=CC(=O)C=C1CC[C@@H]1[C@@H]2C(=O)C[C@@]2(C)[C@H]1CC[C@]2(O)C(=O)CO` [prednisone], in the series with adult RA patients [1] (setting [3]), the “Duration of morning stiffness, Visit 5 (Start of Follow-up Period), mean” value turned out to be 125.56 min and the “Duration of morning stiffness, Visit 5 (Start of Follow-up Period), median” value worked out at 83.93 min. For the same compound, in the series on adult RA patients [1] (setting [4]), the “Duration of morning stiffness, Visit 2 (Start of Double-blind Period), mean” value stood at 169.80 min and the “Duration of morning stiffness, Visit 2 (Start of Double-blind Period), median” value was determined as 143.21 min. Besides, in the series on CRP, the “CRP (median), Visit 5 (Start of Follow-up)” value was 9.40 (n = 249) mg/L. For the same compound, in the series with adult RA patients [2] (12-week double-blind phase, label prednisone = Total of both groups (N = 288)), the “All AEs (at least one treatment-emergent AE)” value is given as 118 (41.0) No. (%) subjects. In the series on adult RA patients [2] (setting [5]), the “AE: Abdominal pain (Upper)” value is 13 (4.5) No. (%) subjects, the “AE: Flushing” value was 10 (3.5) No. (%) subjects, the “AE: Headache” value was 10 (3.5) No. (%) subjects and the “AE: Nasopharyngitis (values printed on the line headed 'Upper')” value was 12 (4.2) No. (%) subjects. Besides, in the series on adult RA patients [2] (setting [5]), the “AE: Nausea” value was 9 (3.1) No. (%) subjects, the “AE: Rheumatoid arthritis” value is 24 (8.3) No. (%) subjects, the “Drug-related AE: Abdominal pain (Upper)” value is on record as 7 (2.4) No. (%) subjects and the “Drug-related AE: Headache” value is recorded as 6 (2.1) No. (%) subjects. In addition, in the series with adult RA patients [2] (setting [5]), the “Drug-related AE: Nausea (values printed on the line headed 'Upper')” value is reported as 6 (2.1) No. (%) subjects and the “Drug-related AE: Rheumatoid arthritis” value is on record as 5 (1.7) No. (%) subjects. For the same compound, the SAEs entry with adult RA patients [2] (double-blind phase, both groups, 2.4%) is on record as “Seven”. Besides, the “AEs causing discontinuation of prednisone” value in the series with adult RA patients [2] (double-blind phase, both groups, 7.6%) amounted to 22 subjects. In the series on adult RA patients [2] (of the 7 subjects with SAEs), the “SAE judged to be related to prednisone by the investigator” value was “one”.
